For this test, the target named is T1, RPMI 8866 cells (Homo sapiens, UniProt P13612+P26010).
T1 sequence (P13612 34-1032): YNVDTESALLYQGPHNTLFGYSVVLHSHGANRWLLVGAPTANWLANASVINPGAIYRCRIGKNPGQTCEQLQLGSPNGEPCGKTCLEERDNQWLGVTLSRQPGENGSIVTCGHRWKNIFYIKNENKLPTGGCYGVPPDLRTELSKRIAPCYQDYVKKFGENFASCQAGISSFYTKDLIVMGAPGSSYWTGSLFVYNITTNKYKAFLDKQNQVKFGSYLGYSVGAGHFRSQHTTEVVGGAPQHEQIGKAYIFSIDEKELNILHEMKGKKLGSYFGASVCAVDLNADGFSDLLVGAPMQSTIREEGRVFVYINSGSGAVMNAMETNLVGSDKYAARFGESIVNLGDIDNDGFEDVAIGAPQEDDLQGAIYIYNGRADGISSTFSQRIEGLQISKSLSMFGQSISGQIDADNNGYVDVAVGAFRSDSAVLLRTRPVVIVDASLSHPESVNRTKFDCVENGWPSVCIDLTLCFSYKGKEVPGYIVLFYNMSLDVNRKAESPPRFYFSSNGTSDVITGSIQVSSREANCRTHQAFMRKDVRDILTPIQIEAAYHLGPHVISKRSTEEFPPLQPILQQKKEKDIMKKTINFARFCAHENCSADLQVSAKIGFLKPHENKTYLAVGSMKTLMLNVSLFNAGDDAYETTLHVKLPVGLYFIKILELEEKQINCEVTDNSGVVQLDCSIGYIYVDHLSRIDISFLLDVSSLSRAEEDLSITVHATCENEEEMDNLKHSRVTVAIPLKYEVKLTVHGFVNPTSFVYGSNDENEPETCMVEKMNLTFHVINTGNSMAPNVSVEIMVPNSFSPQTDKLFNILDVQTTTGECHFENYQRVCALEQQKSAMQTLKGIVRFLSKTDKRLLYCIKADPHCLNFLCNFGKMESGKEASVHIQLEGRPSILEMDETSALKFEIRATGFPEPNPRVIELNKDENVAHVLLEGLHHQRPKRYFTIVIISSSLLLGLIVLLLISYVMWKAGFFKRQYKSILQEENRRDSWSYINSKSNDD
T1 sequence (P26010 20-798): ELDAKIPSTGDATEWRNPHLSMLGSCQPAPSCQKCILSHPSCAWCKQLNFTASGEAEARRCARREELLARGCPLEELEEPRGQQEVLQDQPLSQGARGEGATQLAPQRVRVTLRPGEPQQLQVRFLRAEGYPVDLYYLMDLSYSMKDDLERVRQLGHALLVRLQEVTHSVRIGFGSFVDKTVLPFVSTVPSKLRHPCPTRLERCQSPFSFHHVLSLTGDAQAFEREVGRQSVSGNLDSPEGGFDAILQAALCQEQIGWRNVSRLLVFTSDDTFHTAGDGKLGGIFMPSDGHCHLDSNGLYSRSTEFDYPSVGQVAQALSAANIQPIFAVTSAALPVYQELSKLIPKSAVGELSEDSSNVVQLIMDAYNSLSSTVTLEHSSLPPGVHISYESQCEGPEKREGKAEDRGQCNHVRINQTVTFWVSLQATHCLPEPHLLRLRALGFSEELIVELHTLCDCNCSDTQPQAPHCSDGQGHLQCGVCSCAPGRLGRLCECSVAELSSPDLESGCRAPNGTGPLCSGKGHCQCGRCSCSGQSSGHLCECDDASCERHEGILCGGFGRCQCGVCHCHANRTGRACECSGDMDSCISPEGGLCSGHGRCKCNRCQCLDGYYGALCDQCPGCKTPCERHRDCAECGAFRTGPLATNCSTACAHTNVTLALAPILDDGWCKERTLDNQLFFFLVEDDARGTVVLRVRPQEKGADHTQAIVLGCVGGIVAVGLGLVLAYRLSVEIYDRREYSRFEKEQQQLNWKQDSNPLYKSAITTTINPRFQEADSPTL
The test can be described thus: α4β7-MAdCAM Cell Adhesion Assay. The test is classed as cell-based. The following applies: thioether peptide dimers, Table 7; read-out: Cell-Adhesion A4B7. The procedure, abridged:
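RPMI 8866 cells (200,000/well) in DMEM with 1 mM MnCl2 and 0.1% BSA were allowed to adhere 30-45 min at 37° C to plates coated with rh MAdCAM-1/Fc (200 ng/well) in presence of serially diluted peptide. After washing, bound cells quantified by MTT, absorbance 570 nm, cell-free background subtracted.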

*1 amine or outer side, *2 acyl side, *3 side chain or, on linkers, in order; H or OH if unused. Where a SMILES comes first, the peptide text is derived from it. Bridges are numbered along the chain shown (N, C = ends). Roman numbers before positions name the chains, in order. [ ]: non-standard residue; d: D form. Bip = N[C@@H](Cc1ccc(-c2ccccc2)cc1)C(=O)O; Diglycolyl = O=C(COCC(=O)[*:2])[*:1]; NMeR = CN[C@@H](CCCNC(=N)N)C(=O)O; Tic = O=C(O)[C@@H]1Cc2ccccc2CN1; X1 = O=C(c1ccccc1C[*:2])[*:1]; Pen = CC(C)(S)[C@H](N)C(=O)O

Take `CC(C)C[C@@H]1NC(=O)[C@H]([C@@H](C)O)NC(=O)[C@H](CC(=O)O)NC(=O)[C@H](CO)NC(=O)[C@H](CCCNC(=N)N)N(C)C(=O)c2ccccc2CSC(C)(C)[C@@H](C(=O)N[C@@H](Cc2ccccc2)C(=O)N[C@H](CCC(=O)O)C(=O)N[C@H](CCCCNC(=O)COCC(=O)NCCCC[C@@H](NC(=O)[C@@H](CCC(=O)O)NC(=O)[C@H](Cc2ccccc2)NC(=O)[C@H]2NC(=O)[C@H](CC(C)C)NC(=O)[C@H]([C@@H](C)O)NC(=O)[C@H](CC(=O)O)NC(=O)[C@H](CO)NC(=O)[C@H](CCCNC(=N)N)N(C)C(=O)c3ccccc3CSC2(C)C)C(=O)O)C(=O)O)NC1=O` [compound 204] (I: [NMeR]SDTL[Pen]F[dE][dK]-OH / II: [NMeR]SDTL[Pen]F[dE][dK]-OH; linker I:9-II:9 via Diglycolyl; linker I:N-I:6, II:N-II:6 via X1): the IC50 is < 25 nM.

As to `CC(C)C[C@@H]1NC(=O)[C@H]([C@@H](C)O)NC(=O)[C@H](CC(=O)O)NC(=O)[C@H](CO)NC(=O)[C@H](CCCNC(=N)N)N(C)C(=O)c2ccccc2CSC[C@@H](C(=O)N2Cc3ccccc3C[C@H]2C(=O)N[C@H](CCC(=O)O)C(=O)N[C@H](CCCCNC(=O)COCC(=O)NCCCC[C@@H](NC(=O)[C@@H](CCC(=O)O)NC(=O)[C@@H]2Cc3ccccc3CN2C(=O)[C@@H]2CSCc3ccccc3C(=O)N(C)[C@@H](CCCNC(=N)N)C(=O)N[C@@H](CO)C(=O)N[C@@H](CC(=O)O)C(=O)N[C@@H]([C@@H](C)O)C(=O)N[C@@H](CC(C)C)C(=O)N2)C(=O)O)C(=O)O)NC1=O` [compound 207] (I: [NMeR]SDTLC[Tic][dE][dK]-OH / II: [NMeR]SDTLC[Tic][dE][dK]-OH; linker I:9-II:9 via Diglycolyl; linker I:N-I:6, II:N-II:6 via X1), the IC50 was < 25 nM.

As to `CC(C)C[C@@H]1NC(=O)[C@H]([C@@H](C)O)NC(=O)[C@H](CC(=O)O)NC(=O)[C@H](CO)NC(=O)[C@H](CCCNC(=N)N)N(C)C(=O)c2ccccc2CSC(C)(C)[C@@H](C(=O)N[C@@H](Cc2ccc(-c3ccccc3)cc2)C(=O)N[C@H](CCC(=O)O)C(=O)N[C@H](CCCCNC(=O)COCC(=O)NCCCC[C@@H](NC(=O)[C@@H](CCC(=O)O)NC(=O)[C@H](Cc2ccc(-c3ccccc3)cc2)NC(=O)[C@H]2NC(=O)[C@H](CC(C)C)NC(=O)[C@H]([C@@H](C)O)NC(=O)[C@H](CC(=O)O)NC(=O)[C@H](CO)NC(=O)[C@H](CCCNC(=N)N)N(C)C(=O)c3ccccc3CSC2(C)C)C(=O)O)C(=O)O)NC1=O` [compound 208] (I: [NMeR]SDTL[Pen][Bip][dE][dK]-OH / II: [NMeR]SDTL[Pen][Bip][dE][dK]-OH; linker I:9-II:9 via Diglycolyl; linker I:N-I:6, II:N-II:6 via X1), the IC50 is < 25 nM.

On to `CC(C)C[C@@H]1NC(=O)[C@H]([C@@H](C)O)NC(=O)[C@H](CC(=O)O)NC(=O)[C@H](CO)NC(=O)[C@H](CCCNC(=N)N)N(C)C(=O)c2ccccc2CSC(C)(C)[C@@H](C(=O)N[C@@H](Cc2c[nH]c3ccccc23)C(=O)N[C@H](CCC(=O)O)C(=O)N[C@H](CCCCNC(=O)COCC(=O)NCCCC[C@@H](NC(=O)[C@@H](CCC(=O)O)NC(=O)[C@H](Cc2c[nH]c3ccccc23)NC(=O)[C@H]2NC(=O)[C@H](CC(C)C)NC(=O)[C@H]([C@@H](C)O)NC(=O)[C@H](CC(=O)O)NC(=O)[C@H](CO)NC(=O)[C@H](CCCNC(=N)N)N(C)C(=O)c3ccccc3CSC2(C)C)C(=O)O)C(=O)O)NC1=O` [compound 209] (I: [NMeR]SDTL[Pen]W[dE][dK]-OH / II: [NMeR]SDTL[Pen]W[dE][dK]-OH; linker I:9-II:9 via Diglycolyl; linker I:N-I:6, II:N-II:6 via X1), for which the IC50 is < 25 nM.

(Values after US20260217767A1, “NOVEL A4B7 THIOETHER PEPTIDE DIMER ANTAGONISTS” (Protagonist Therapeutics, Inc., priority 2014, published 2026).)
